Our source for the inhibition values is ChEMBL document CHEMBL4813974 (Eur J Med Chem, 2021).

Active and inactive are the calls of the source. The calls are words filed in the database; no cut-off is given here.

Assay [1] deals with T1, Alkaline ceramidase 3 (Mus musculus) (UniProt Q9D099).
T1 sequence (whole entry): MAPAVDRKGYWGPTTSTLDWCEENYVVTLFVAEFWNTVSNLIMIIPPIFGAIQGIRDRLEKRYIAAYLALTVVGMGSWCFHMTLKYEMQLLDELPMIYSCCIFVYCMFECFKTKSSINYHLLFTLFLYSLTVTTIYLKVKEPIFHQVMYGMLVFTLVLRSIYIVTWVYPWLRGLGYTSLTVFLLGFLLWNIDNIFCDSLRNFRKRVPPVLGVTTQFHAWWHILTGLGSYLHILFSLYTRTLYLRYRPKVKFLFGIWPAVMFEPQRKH
Nature of the assay: Inhibition of ACER3 in ASAH2-null mouse embryonic fibroblast lysate using RBM14C16 fluorogenic substrate measured at 1:1 substrate to compound molar ratio at pH 9 in presence of Ca2+ by fluorescence spectrophotometry. The settings on record: MEF.

The target in assay [2] is T2, Acid ceramidase (Homo sapiens) (UniProt Q13510).
T2 sequence (whole entry): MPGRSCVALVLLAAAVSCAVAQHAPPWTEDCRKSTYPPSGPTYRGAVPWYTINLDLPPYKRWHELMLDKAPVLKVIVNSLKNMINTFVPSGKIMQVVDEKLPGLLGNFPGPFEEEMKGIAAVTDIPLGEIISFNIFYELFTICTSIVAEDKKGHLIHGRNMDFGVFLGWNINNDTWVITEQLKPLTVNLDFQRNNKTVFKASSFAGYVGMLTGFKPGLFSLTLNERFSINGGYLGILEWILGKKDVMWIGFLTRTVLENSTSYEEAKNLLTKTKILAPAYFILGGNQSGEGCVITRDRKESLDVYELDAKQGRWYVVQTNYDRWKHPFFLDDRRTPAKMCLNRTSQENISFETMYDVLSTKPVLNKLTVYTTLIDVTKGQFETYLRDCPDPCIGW
Put plainly: Inhibition of human ASAH1 stably over expressed in human A-375 cell lysate using RBM14C12 fluorogenic substrate measured at 2:1 compound to substrate molar ratio at pH 4.5 by fluorescence spectrophotometry. The assay is classed as subcellular.

Assay [3] deals with T2, Acid ceramidase (Homo sapiens). Put plainly: Inhibition of human ASAH1 stably over expressed in human A-375 cell lysate using RBM14C12 fluorogenic substrate measured at 1:1 compound to substrate molar ratio at pH 4.5 by fluorescence spectrophotometry. The assay is classed as subcellular.
The next assay deals with Neutral ceramidase (Homo sapiens, UniProt Q9NR71). Put plainly: Inhibition of human ASAH2 stably over expressed in human A-375 cell lysate using RBM14C24 fluorogenic substrate measured at 20 uM at pH 7.5 by fluorescence spectrophotometry. The assay is classed as subcellular.
Neutral ceramidase, sequence (Q9NR71 whole entry): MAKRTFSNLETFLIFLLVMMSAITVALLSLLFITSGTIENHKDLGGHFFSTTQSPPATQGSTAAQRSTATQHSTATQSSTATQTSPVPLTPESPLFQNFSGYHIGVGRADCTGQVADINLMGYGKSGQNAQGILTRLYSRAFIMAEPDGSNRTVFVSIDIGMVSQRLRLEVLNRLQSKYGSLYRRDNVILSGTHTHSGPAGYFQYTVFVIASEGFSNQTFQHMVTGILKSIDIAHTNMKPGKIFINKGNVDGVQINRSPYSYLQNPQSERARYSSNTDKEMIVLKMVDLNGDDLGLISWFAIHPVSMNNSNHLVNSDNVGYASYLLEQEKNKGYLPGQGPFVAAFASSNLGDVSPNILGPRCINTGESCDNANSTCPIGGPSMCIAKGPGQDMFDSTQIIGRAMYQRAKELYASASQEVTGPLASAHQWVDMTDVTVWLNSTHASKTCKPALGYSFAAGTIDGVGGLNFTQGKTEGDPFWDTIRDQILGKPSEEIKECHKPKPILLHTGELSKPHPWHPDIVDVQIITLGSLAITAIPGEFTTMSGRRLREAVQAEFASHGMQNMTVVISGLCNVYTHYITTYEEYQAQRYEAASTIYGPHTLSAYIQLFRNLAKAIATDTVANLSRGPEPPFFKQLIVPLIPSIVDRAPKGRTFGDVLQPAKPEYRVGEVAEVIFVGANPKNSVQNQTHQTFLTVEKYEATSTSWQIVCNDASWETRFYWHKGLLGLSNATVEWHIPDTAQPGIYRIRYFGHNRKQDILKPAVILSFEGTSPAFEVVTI

`CCCCCCCCCCCC/C=C/[C@H](O)[C@@H](C)NC(=O)CCCCCCC`: the inhibition result in assay [1] and in assay [2] was “inactive” in each case.
In the case of `CCCCCCCCCCCCCC[C@H](O)[C@@H](C)NC(=O)c1ccc(CCCCCCC)cc1`, the inhibition entry in assay [1] and in assay [2] was “inactive” each time.
Regarding `CCCCCCCCCCCC/C=C/[C@@H](O)[C@@H](C)NC(=O)c1ccc(OCCCCCC)cc1`, the inhibition result (in assay [3]; on Neutral ceramidase) was “inactive” in each case.
In the case of `CCCCCCCCCCCC/C=C/[C@@H](O)[C@@H](C)NC(=O)c1ccc(CC)cc1`, the inhibition entry (in assay [3]; on Neutral ceramidase) was “inactive” each time.
As to `CCCCCCCCCCCCCC[C@@H](O)[C@@H](C)NC(=O)C(C)(C)C`, the inhibition entry in assay [1] and in assay [2] was “inactive” each time.
On to `CCCCCCCCCCCC/C=C/[C@@H](O)[C@@H](C)NC(=O)c1ccc(OCCOCCOC)cc1`, for which the inhibition result (in assay [3]; on Neutral ceramidase) was “inactive” throughout.
As for `CCCCCCCCCCCCCC[C@@H](O)[C@H](C)NC(=O)c1ccc(CCCCCCC)cc1`, the inhibition entry in assay [1] and in assay [2] was “inactive” each time.
On to `CCCCCCCCCCCC/C=C/[C@@H](O)[C@@H](C)NC(=O)CBr`, for which the inhibition entry in assay [1] and in assay [2] was “inactive” each time.
Consider `CCCCCCCCCCCCCC[C@@H](O)[C@H](C)NC(=O)C(C)(C)C`, for which the inhibition result in assay [1] and in assay [2] was “inactive” throughout.
`CCCCCCCCCCCC/C=C/[C@@H](O)[C@@H](C)NC(=O)c1ccc(CCCCC)cc1`: the inhibition result (in assay [3]; at Neutral ceramidase) was “inactive” throughout.
For the molecule `CCCCCCCCCCCC/C=C/[C@@H](O)[C@H](C)NC(=O)C(C)(C)C`, the inhibition entry in assay [1] and in assay [2] was “inactive” in each case.
Turning to `CCCCCCCCCCCC/C=C/[C@H](O)[C@H](C)NC(=O)C(C)(C)C`, the inhibition result in assay [1] and in assay [2] was “inactive” in each case.
In the case of `CCCCCCCCCCCC/C=C/[C@@H](O)[C@@H](C)NC(=O)c1ccc(CCCCCC)cc1`, the inhibition result (in assay [3]; at Neutral ceramidase) was “inactive” throughout.
On to `CCCCCCCCCCCC/C=C/[C@H](O)[C@H](C)N`, for which the inhibition entry in assay [1] and in assay [2] was “inactive” in each case.
Take `CCCCCCCCCCCC/C=C/[C@H](O)[C@@H](C)NC(=O)C(C)(C)C`: the inhibition result in assay [1] and in assay [2] was “inactive” throughout.
Consider `CCCCCCCCCCCCCC[C@H](O)[C@H](C)N`, for which the inhibition entry in assay [1] and in assay [2] was “inactive” each time.
As to `CCCCCCCCCCCC/C=C/[C@@H](O)[C@H](C)NC(=O)CCCCCCC`, the inhibition entry in assay [1] and in assay [2] was “inactive” in each case.
Regarding `CCCCCCCCCCCC/C=C/[C@H](O)[C@H](C)NC(=O)CBr`, the inhibition entry in assay [1] and in assay [2] was “inactive” each time.
In the case of `CCCCCCCCCCCCCC[C@@H](O)[C@@H](C)NC(=O)c1ccc(CCCCCCC)cc1`, the inhibition result in assay [1] and in assay [2] was “inactive” throughout.
With `CCCCCCCCCCCCCC[C@@H](O)[C@@H](C)N`, the inhibition result in assay [1] and in assay [2] was “inactive” in each case.
For the molecule `CCCCCCCCCCCCCC[C@H](O)[C@@H](C)NC(=O)CCCCCCC`, the inhibition entry in assay [1] and in assay [2] was “inactive” throughout.
As for `CCCCCCCCCCCC/C=C/[C@@H](O)[C@H](C)N`, the inhibition entry in assay [1] and in assay [2] was “inactive” throughout.
`CCCCCCCCCCCCCC[C@@H](O)[C@H](C)NC(=O)CBr`: the inhibition entry in assay [1] and in assay [2] was “inactive” in each case.
With `CCCCCCCCCCCC/C=C/[C@H](O)[C@H](C)NC(=O)c1ccc(CCCCCCC)cc1`, the inhibition result in assay [1] and in assay [2] was “inactive” each time.
As for `CCCCCCCCCCCC/C=C/[C@@H](O)[C@@H](C)NC(=O)C(C)(C)C`, the inhibition entry in assay [1] and in assay [2] was “inactive” each time.
For the molecule `CCCCCCCCCCCC/C=C/[C@@H](O)[C@H](C)NC(=O)c1ccc(CCCCCCC)cc1`, the inhibition entry in assay [1] and in assay [2] was “inactive” in each case.
In the case of `CCCCCCCCCCCC/C=C/[C@@H](O)[C@@H](C)NC(=O)c1ccc(CCC)cc1`, the inhibition entry (in assay [3]; at Neutral ceramidase) was “inactive” throughout.
On to `CCCCCCCCCCCC/C=C/[C@@H](O)[C@@H](C)NC(=O)c1ccc(OCCCCC)cc1`, for which the inhibition result (in assay [3]; at Neutral ceramidase) was “inactive” in each case.
Consider `CCCCCCCCCCCCCC[C@H](O)[C@@H](C)NC(=O)CBr`, for which the inhibition result in assay [1] and in assay [2] was “inactive” in each case.
Turning to `CCCCCCCCCCCC/C=C/[C@@H](O)[C@@H](C)NC(=O)c1ccc(OCCCCCCCOCOC)cc1`, the inhibition result (in assay [3]; at Neutral ceramidase) was “inactive” in each case.
As to `CCCCCCCCCCCCCC[C@H](O)[C@@H](C)N`, the inhibition result in assay [1] and in assay [2] was “inactive” in each case.
Turning to `CCCCCCCCCCCCCC[C@H](O)[C@@H](C)NC(=O)C(C)(C)C`, the inhibition entry in assay [1] and in assay [2] was “inactive” each time.
Consider `CCCCCCCCCCCCCC[C@@H](O)[C@H](C)N`, for which the inhibition entry in assay [1] and in assay [2] was “inactive” in each case.
With `CCCCCCCCCCCC/C=C/[C@@H](O)[C@@H](C)NC(=O)c1ccc(C(C)(C)C)cc1`, the inhibition entry (in assay [3]; at Neutral ceramidase) was “inactive” each time.
On to `CCCCCCCCCCCC/C=C/[C@@H](O)[C@@H](C)NC(=O)c1ccc(OCCCCCCC)cc1`, for which the inhibition entry (in assay [3]; at Neutral ceramidase) was “inactive” throughout.
For the molecule `CCCCCCCCCCCCCC[C@@H](O)[C@@H](C)NC(=O)CBr`, the inhibition entry in assay [1] and in assay [2] was “inactive” each time.
Regarding `CCCCCCCCCCCC/C=C/[C@@H](O)[C@@H](C)NC(=O)c1ccc(OCOC)cc1`, the inhibition entry (in assay [3]; on Neutral ceramidase) was “inactive” throughout.
In the case of `CCCCCCCCCCCC/C=C/[C@@H](O)[C@@H](C)NC(=O)c1ccc(OCCCCCOCOC)cc1`, the inhibition entry (in assay [3]; at Neutral ceramidase) was “inactive” each time.
Regarding `CCCCCCCCCCCC/C=C/[C@H](O)[C@@H](C)NC(=O)CBr`, the inhibition entry in assay [1] and in assay [2] was “inactive” each time.
`CCCCCCCCCCCC/C=C/[C@@H](O)[C@H](C)NC(=O)CBr`: the inhibition entry in assay [1] and in assay [2] was “inactive” each time.
Turning to `CCCCCCCCCCCCCC[C@H](O)[C@H](C)NC(=O)c1ccc(CCCCCCC)cc1`, the inhibition entry in assay [1] and in assay [2] was “inactive” throughout.
For `CCCCCCCCCCCC/C=C/[C@@H](O)[C@@H](C)N`, the inhibition entry in assay [1] and in assay [2] was “inactive” each time.
Consider `CCCCCCCCCCCC/C=C/[C@H](O)[C@@H](C)NC(=O)c1ccc(CCCCCCC)cc1`, for which the inhibition entry in assay [1] and in assay [2] was “inactive” each time.
Consider `CCCCCCCCCCCCCC[C@H](O)[C@H](C)NC(=O)CBr`, for which the inhibition result in assay [1] and in assay [2] was “inactive” throughout.
On to `CCCCCCCCCCCC/C=C/[C@@H](O)[C@@H](C)NC(=O)c1ccc(OCCOCOC)cc1`, for which the inhibition entry (in assay [3]; at Neutral ceramidase) was “inactive” throughout.
Turning to `CCCCCCCCCCCC/C=C/[C@@H](O)[C@@H](C)NC(=O)c1ccccc1`, the inhibition entry (in assay [3]; on Neutral ceramidase) was “inactive” each time.
With `CCCCCCCCCCCCCC[C@@H](O)[C@H](C)NC(=O)CCCCCCC`, the inhibition result in assay [1] and in assay [2] was “inactive” throughout.
As to `CCCCCCCCCCCC/C=C/[C@H](O)[C@H](C)NC(=O)CCCCCCC`, the inhibition entry in assay [1] and in assay [2] was “inactive” throughout.
In the case of `CCCCCCCCCCCC/C=C/[C@H](O)[C@@H](C)N`, the inhibition entry in assay [1] and in assay [2] was “inactive” throughout.
On to `CCCCCCCCCCCCCC[C@H](O)[C@H](C)NC(=O)C(C)(C)C`, for which the inhibition result in assay [1] and in assay [2] was “inactive” throughout.
As to `CCCCCCCCCCCCCC[C@H](O)[C@H](C)NC(=O)CCCCCCC`, the inhibition result in assay [1] and in assay [2] was “inactive” each time.
As to `CCCCCCCCCCCCCC[C@@H](O)[C@@H](C)NC(=O)CCCCCCC`, the inhibition entry in assay [1] and in assay [2] was “inactive” each time.
